In paper PMC4476818, “Characterization of uronate dehydrogenases catalysing the initial step in an oxidative pathway” (Microbial Biotechnology, 2015):
Where two headings read alike, the source gives them in different places.

Tests used:
UdhOg = system: T1, UdhOg; test: NADH formation at […] nm; assay type: biochemical, Oceanicola granulosus
T1 construct: gene udh; N-terminal His-tag, tag kept; wild-type gene from genomic DNA, E. coli BL21(DE3); start MKKIVLT (from primer)

UdhFp = system: T2, UdhFp; test: NADH formation at […] nm; assay type: biochemical, Fulvimarina pelagi
T2 construct: gene udh; N-terminal His-tag, tag kept; synthetic codon-optimized gene, E. coli BL21(DE3); start MLEKLLI (from primer)

purified protein [1] = substrate: NC(=O)c1ccc[n+]([C@@H]2O[C@H](COP(=O)(O)OP(=O)(O)OC[C@H]3O[C@@H](n4cnc5c(N)ncnc54)[C@H](O)[C@@H]3O)[C@@H](O)[C@H]2O)c1; test: purified protein; assay type: biochemical, Pseudomonas syringae group genomosp. 3; details: 50 mM potassium phosphate pH 8.0, 37°C, uronic acid co-substrate, varied: cofactor
purified protein [2] = substrate: NC(=O)c1ccc[n+]([C@@H]2O[C@H](COP(=O)(O)OP(=O)(O)OC[C@H]3O[C@@H](n4cnc5c(N)ncnc54)[C@H](O)[C@@H]3O)[C@@H](O)[C@H]2O)c1; test: purified protein; assay type: biochemical, Agrobacterium fabrum; details: 50 mM potassium phosphate pH 8.0, 37°C, uronic acid co-substrate, varied: cofactor
[3] = 50 mM Tris-HCl pH 8.0, 37°C, co-substrate NAD+, read-out: Tris-Buffer / Kinetic parameters / Km
[4] = 50 mM potassium phosphate pH 8.0, 37°C, uronic acid co-substrate, read-out: KPi-Buffer / Kinetic parameters / Km

Molecule O=C(O)[C@H]1OC(O)[C@H](O)[C@@H](O)[C@H]1O (stereo partly shown) [Galacturonate] has a Km (UdhOg; [3]) of 55000 ± 3000 µM and a Km (UdhFp; [3]) of 20 µM.

Molecule O=C(O)[C@H]1OC(O)[C@H](O)[C@@H](O)[C@@H]1O (stereo partly shown) [Glucuronate] has a Km (UdhOg; [3]) of 64000 ± 3000 µM and a Km (UdhFp; [3]) of 200 ± 30 µM.

In the case of O=C(O)[C@H]1OC(O)[C@@H](O)[C@@H](O)[C@@H]1O (stereo partly shown) [Mannuronate], the Km (UdhFp; [3]) is reported as 6400 ± 130 µM.

NC(=O)c1ccc[n+]([C@@H]2O[C@H](COP(=O)(O)OP(=O)(O)OC[C@H]3O[C@@H](n4cnc5c(N)ncnc54)[C@H](O)[C@@H]3O)[C@@H](O)[C@H]2O)c1 [NAD^+] was tested, and the Km (UdhOg; [4]) was 400 ± 100 µM and the Km (UdhFp; [4]) was 200 ± 20 µM.

B1: UdhPs (Pseudomonas syringae pv. tomato str. DC3000) (protein)
chain: MASAHTTQTPFNRLLLTGAAGGLGKVLRETLRPYSHILRLSDIAEMAPAVGDHEEVQVCDLADKDAVHRLVEGVDAILHFGGVSVERPFEEILGANICGVFHIYEAARRHGVKRVIFASSNHVIGFYKQNETIDAHSPRRPDSYYGLSKSYGEDMASFYFDRYGIETVSIRIGSSFPEPQNRRMMSTWLSFDDLTRLLERALYTPDVGHTVVYGVSDNKTVWWDNRFASKLDYAPKDSSEVFRAKVDAQPMPADDDPAMVYQGGAFVASGPFGDK
notes: N-terminal His-tag, tag kept; synthetic codon-optimized gene, E. coli BL21(DE3)
Work on B1 yielded a Km (purified protein [1]) of 200 ± 30 µM, a kcat (purified protein [1]) of 215 ± 12 s⁻¹ and a kcat/Km (purified protein [1]) of 1.26e+06 M⁻¹ s⁻¹.

B2: UdhAt (Agrobacterium fabrum str. C58) (protein)
chain: MKRLLVTGAAGQLGRVMRERLAPMAEILRLADLSPLDPAGPNEECVQCDLADANAVNAMVAGCDGIVHLGGISVEKPFEQILQGNIIGLYNLYEAARAHGQPRIVFASSNHTIGYYPQTERLGPDVPARPDGLYGVSKCFGENLARMYFDKFGQETALVRIGSCTPEPNNYRMLSTWFSHDDFVSLIEAVFRAPVLGCPVVWGASANDAGWWDNSHLGFLGWKPKDNAEAFRRHITETTPPPDPNDALVRFQGGTFVDNPIFKQS
notes: as for B1
B2 showed a Km (purified protein [2]) of 100 ± 0 µM, a kcat (purified protein [2]) of 144 ± 14 s⁻¹ and a kcat/Km (purified protein [2]) of 1.08e+06 M⁻¹ s⁻¹.
